Reference: US20240299400A1, “Transcription Factor GLI1 Inhibitors and Uses Thereof” (University of Connecticut, priority 2023, published 2024)
One block for each molecule: values may come before it.

Tests used:
GLI1 mRNA expression [1] = test: RT-qPCR GLI1 mRNA expression in OHCs-stimulated C3H10T1/2 MEFs; type: cell-based, mouse; conditions: Table 4, racemates and enantiomers, mean ± SEM; read-out: RT-qPCR, IC50 C3H10T1/2
Procedure: (§1) ASZ001 and Sufu-KO cells were seeded in 96-well plates (10,000/well, 100 μL) and incubated overnight under growth conditions. On the second day, ‘growth’ media was removed and replaced by ‘assay’ media (100 μL). On the third day, cells were treated with a serial dilution of drugs or DMSO for 48 h. mRNA expression was determined through Taqman Fast Cells-to-CT Kit (#4399003) per the manufacturer's instructions. In brief, cells were washed with chilled PBS, then mixed with lysis solution containing DNase I and incubated at RT for 5 min. Stop solution was then added to quench the lysis reagents. cDNA was then synthesized through a BioRad MyCycler following addition of reverse transcriptase. Finally, the cDNA was amplified through an ABI 7500 system following addition of Taqman Fast Universal PCR Master Mix and Taqman Gene Expression Primer. Relative gene expression levels were computed by the ΔΔCt method. Values represent mRNA expression relative to DMSO control (set at 1.0). Data were analyzed using GraphPad Prism, and IC50 values are the mean±SEM for at least two separate experiments performed in triplicate. Primers used are as follows: mouse ActB (Mm00607939_s1); mouse GLI1 (Mm00494645_ml); mouse Gli2 (Mm01293117_ml); mouse Ptch1 (Mm00436026_ml); mouse Hhip (Mm00469580_ml).
C3H10T1/2 MEFs were seeded in 24-well plates (50,000/well, 500 μL). Following 24 h incubation, the ‘growth’ media was removed and replaced with ‘assay’ media (500 μL). On the third day, cells were treated with either DMSO, OHCs, or OHCs+drugs. Following a 24 h incubation, gene expression analysis was carried out following identical protocols as described above.

GLI1-ZFD [2] = molecular target: T1, GLI1-ZFD (Homo sapiens, UniProt P08151); test: Microscale thermophoresis (MST) binding to GLI1-ZFD
T1 construct: GLI1-ZFD Expression and Purification; made in house
T1 sequence (P08151 234-388 limits assumed): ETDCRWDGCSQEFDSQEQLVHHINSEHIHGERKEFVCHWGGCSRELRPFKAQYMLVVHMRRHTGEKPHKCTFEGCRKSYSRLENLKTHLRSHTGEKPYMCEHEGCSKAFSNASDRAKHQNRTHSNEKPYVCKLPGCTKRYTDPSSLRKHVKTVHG
Procedure: The protein expression and purification experiments followed the previous reported procedures [C. A. Maschinot, et al., Synthesis and evaluation of third generation vitamin D3 analogues as inhibitors of hedgehog signaling. Euro. J. Med. Chem. 162 (2019) 495-506].
GLI1 protein labeling was performed through the Monolith Protein Labeling Kit RED-NHS 2nd Generation (Nanotemper #MO-LO11) per the manufacturer's instructions. Briefly, GLI1 (100 μg, 1 mg/mL) underwent buffer exchange to remove incompatible ingredients like Tris or DTT. Proteins in the Labeling Buffer were incubated with freshly prepared dye (˜3-fold excess of dye) for 30 min at RT in the dark. Unreacted ‘free’ dye was removed by a gel-filtration column. Protein concentration and degree-of-labeling were calculated by measuring absorption at 280 nm and 650 nm. For each assay, 200 nM GLI1 in MST Buffer was mixed with compound dilution in DMSO (DMSO<5%, v/v). The mixture was then loaded to a capillary and the thermophoresis was subsequently determined through Monolith NT.115 station. Results were analyzed by MO.Affinity Analysis software and visualized by Graphpad Prism. MST Buffer: 50 mM HEPES, pH 8.3, 100 mM NaCl.

GLI1 mRNA expression [3] = test: RT-qPCR GLI1 mRNA expression in ASZ001 BCC cells; type: cell-based, mouse; conditions: read-out: RT-qPCR, IC50 ASZ001
Procedure: as §1

GLI1-ZFD [4] = molecular target: T1, GLI1-ZFD; test: Surface plasmon resonance (SPR) binding to GLI1-ZFD; conditions: analyte 100 to 3.125 μM, 1:1 binding fit
Procedure: SPR studies were performed on a Biacore T200 as a contract service by Creative Biolabs (Shirley, NY, USA), utilizing the same procedure described previously [G. Yernale, A comprehensive review on the biological interest of quinoline and its derivatives. Bioorg. Med. Chem. 32 (2021) 115973]. Briefly, GLI1 protein was immobilized on a Series S CM5 sensor chip (GE Healthcare), and various concentrations of compound 1a/b were injected (flow rate, 30 μL/min) with a contact time of 180 s and dissociation time of 600 s. Kinetic parameters were determined by the Biacore T200 evaluation software.

GLI1 mRNA expression [5] = test: RT-qPCR GLI1 mRNA expression in Sufu-KO MEFs; type: cell-based, mouse; conditions: read-out: RT-qPCR, IC50 Sufu-KO
Procedure: as §1

DAOY (MB) = test: MTS anti-proliferative assay in DAOY cells; type: cell-based; conditions: Homo sapiens, Daoy; Table 8, 48 h, mean ± SEM
Procedure: (§2) Cell viability was assessed by MTS proliferation assay kit (Promega) per manufacturer's protocol. Briefly, 2×10^4 cells were plated in a 96-well plate in 100 μL growth medium to make the cell population at ˜80% confluence. After 24 h, 1 μL drug solution was added to each well. DMSO was used as vehicle compound. After 48 h incubation (37° C., 5% CO2), 20 μL of freshly prepared 3-(4,5-dimethylthiazol-2-yl)-5-(3-carboxymethoxyphenyl)-2-(4-sulfophenyl)-2H-tetrazolium (MTS)/phenazine methosulfate (PMS) solution was added to each well, and the plate was returned to the incubator for 1 h. Absorbance at 490 nm was recorded, and the result was analyzed by GraphPad Prism 5. GI50 values represent mean±SEM for at least two separate experiments performed in triplicate.

PANC-1 (pancreatic) = test: MTS anti-proliferative assay in PANC-1 cells; type: cell-based; conditions: Homo sapiens, PANC-1; Table 8, 48 h, mean ± SEM
Procedure: as §2

ASZ001 cells = test: MTS anti-proliferative assay in ASZ001 cells; type: cell-based, murine; conditions: Mus musculus, ASZ001, Ave ± SEM
Procedure: as §2

[6] = Table 4, racemates and enantiomers, mean ± SEM

IC50 (GLI1 mRNA expression [1]): 0.71 ± 0.26 µM
Kd (GLI1-ZFD [2]; Table 4, mean ± SEM): 12.9 ± 1.6 µM
IC50 (GLI1 mRNA expression [3]; Mus musculus, ASZ001, Table 4, racemates and enantiomers, mean ± SEM): 1.8 ± 0.7 µM
Ka (GLI1-ZFD [4]; listed as 1a (R)): 171 M⁻¹ s⁻¹
Kd (GLI1-ZFD [4]; listed as 1a (R)): 0.00165 s⁻¹
Rmax (GLI1-ZFD [4]; listed as 1a (R)): 62.84
Kd (GLI1-ZFD [4]; read-out: KD): 9.66 µM
IC50 (GLI1 mRNA expression [5]; [6]): 1.7 ± 0.6 µM
Compound: CCN(CC)c1ccc(C(Nc2ccccn2)c2ccc3ccc(C)nc3c2O)cc1 (single isomer, unassigned) [Compound 1a]

IC50 (GLI1 mRNA expression [1]): 0.12 ± 0.08 µM
Kd (GLI1-ZFD [2]; Table 4, mean ± SEM): 22.1 ± 4.3 µM
IC50 (GLI1 mRNA expression [3]; [6]): 1.9 ± 0.6 µM
Ka (GLI1-ZFD [4]; listed as 1b (S)): 70.3 M⁻¹ s⁻¹
Kd (GLI1-ZFD [4]; listed as 1b (S)): 0.00131 s⁻¹
Rmax (GLI1-ZFD [4]; listed as 1b (S)): 78.64
Kd (GLI1-ZFD [4]; read-out: KD): 18.7 µM
IC50 (GLI1 mRNA expression [5]; [6]): 0.75 ± 0.38 µM
Compound: CCN(CC)c1ccc(C(Nc2ccccn2)c2ccc3ccc(C)nc3c2O)cc1 (single isomer, unassigned) [Compound 1b]

GI50 (PANC-1 (pancreatic)): 61.9 ± 9.3 µM
Kd (GLI1-ZFD [2]; Table 5, Ave ± SEM): > 125 µM
IC50 (GLI1 mRNA expression [3]; Mus musculus, ASZ001, Table 5, GLI1 mRNA, Ave ± SEM): 10 ± 3.2 µM
IC50 (GLI1 mRNA expression [5]; Mus musculus, Table 5, GLI1 mRNA, Ave ± SEM): > 25 µM
Compound: CCN(CC)c1ccc(CNc2ccccn2)cc1 [Compound 14, N-(4-Diethylaminobenzyl)pyridin-2-amine]
GI50 (DAOY (MB)): 45.2 ± 7.7 µM
GI50 (ASZ001 cells; Table 5, 48 h): 34.9 ± 6.1 µM

GI50 (PANC-1 (pancreatic)): 94.3 ± 19.5 µM
binding to GLI1 (in words) (GLI1-ZFD [2]; MST binding assay): do not bind GLI1
Kd (GLI1-ZFD [2]; Table 7, Ave ± SEM): > 125 µM
IC50 (GLI1 mRNA expression [3]; Mus musculus, ASZ001, Table 7, GLI1 mRNA, Ave ± SEM): 21.3 ± 5.2 µM
IC50 (GLI1 mRNA expression [5]; Mus musculus, Table 7, GLI1 mRNA, Ave ± SEM): 7.2 ± 2 µM
Compound: Cc1ccc2ccc(C(Nc3ccccn3)c3ccccc3)c(O)c2n1 (centres unmarked) [Compound 34, 7-(Phenyl(pyridin-2-ylamino)methyl)-2-methylquinolin-8-ol]
GI50 (DAOY (MB)): > 100 µM
GI50 (ASZ001 cells; Table 7, 48 h): > 100 µM
